The text below walks through data of publication PMC10644391, “Targeted Reversible Covalent Modification of a Noncatalytic Lysine of the Krev Interaction Trapped 1 Protein Enables Site-Directed Screening for Protein–Protein Interaction Inhibitors” (ACS Pharmacology & Translational Science, 2023).

Series [1] concerns the target T1, HEG1-KRIT1 PPI (Homo sapiens, UniProt O00522).
T1 construct: a recombinant FERM domain (residues 417–736) of KRIT1; made in house; host or cells: E. coli
Nature of the series: HEG1-KRIT1 PPI fluorescence polarization (FP) time-resolved assay. The series is classed as biochemical. As to conditions: means ± SD, n = 3; for IC50: fluorescence polarization assay after 4 h of incubation; for HEG1-KRIT1 PPI Assay kon / koff: global fit across six or more inhibitor concentrations; for Ki: global fit, unit in Figure 2E, read-out: HEG1-KRIT1 PPI Assay Ki (koff/kon). As to the method:
To evaluate the binding kinetics of HNA inhibitors, a fluorescence polarization (FP) time-resolved assay that uses a recombinant FERM domain (residues 417–736) of KRIT1 and a fluorescence-tagged HEG1 cytoplasmic tail (Cy5-HEG1 7-mer peptide) was developed (Supporting Information). Using HNA as a test compound, the FP data, expressed as millipolarization (mP) units, were obtained every 10 min over the course of 4–7 h. […] Thus, for practical purposes, a 4-h incubation time was established as the standard assay time for non-kinetic IC50 evaluations.
Fluorescence Polarization Assay and Optimization
The KRIT1 FERM domain (residues 417-736) was cloned into plasmid and recombinantly expressed in E. coli as previously described,1 while the Cy5-HEG1 7- mer peptide bearing the Cy5 dye as fluorescent probe was prepared by and purchased from GenScript (New Jersey, US). HEPES- buffered saline (HBS) buffer was supplemented (0.01%) with detergent Triton X -100 to minimize protein adsorption to the microplate. The assay was setup in a 96-well plate plated with 80 nM KRIT1, 4 nM Cy5- HEG1 probe, and either non-tagged HEG1 peptide or HNA as inhibitor (in 5% DMSO). To account for background fluorescence that could interfere with the assay, background wells with only test compound and Cy5 -HEG1 probe (no KRIT1) were also plated. The FP data, expressed as millipolarization (mP) units, were obtained […]
course of 4-7 hours (for kinetic characterization) using a Tecan Spark® Multimode Microplate Reader. The background mP (no KRIT1) was subtracted from mP to account for background fluorescence. All assays were done in triplicates.
Several FP assay conditions were optimized. First, the HEG1 probe engagement of KRIT1 was examined and its interaction was determined to be rapid equilibrium, thus any observed time dependance in response when an inhibitor displaces the probe is the result of inhibitor exchange kinetics and not that of the probe. Next, the affinity of KRIT1 for the probe (Kd) was examined by following the change in polarization signal as a function of a matrix of five probe concentrations and four KRIT1 concentrations (Figure S1B ). A global fit of equation 3 to polarization responses of the inhibitor vs KRIT1 concentration […]
even after 7 hours of incubation. For practical purposes, we have chosen 4 hours as our standard incubation time since it appeared that most of the inhibition has been reached at this time point. The kinetic characterization of HNA as a HEG1- KRIT1 inhibitor will be discussed in greater detail in the kinetic section […]
values to those obtained from the flow cytometry assay. Finally, to assess the robustness of the FP assay, […]
a robust assay) representing an excellent assay with clear differences between positive and negative controls.2 Evaluation of HEG1-KRIT1 inhibitors prior to the optimization of the FP assay were done using flow cytometry, while subsequent compounds were evaluated using the FP assay. All subsequent assay plates included HNA as comparison and control.
Figure S1. Optimization of fluorescence polarization (FP) assay.
HEG1-KRIT1 inhibition. (B) Optimization of KRIT1 protein and Cy5 -HEG1 probe concentrations. Dose-response curve of HNA obtained via fluorescence polarization (C) and flow cytometry (D) assays show […]
All assays were tested in technical duplicates or triplicates in at least 2 different
For orientation: Fluorescence polarisation rises when a labelled molecule tumbles more slowly, as on binding a larger partner.

Series [2] is described as follows: HEK293 cytotoxicity, resazurin cell viability assay. As to conditions: human, HEK293 cells, means ± SD, n = 3. It counts as cell-based. As to the method: Maintenance of HEK293 Cells. HEK293 cell lines (American Type Culture Collection (ATCC)) were cultured in Dulbecco's Modified Eagle Medium (DMEM, Invitrogen) supplemented with 10% heat-inactivated fetal bovine serum (FBS, Gibco) and penicillin-streptomycin (1%). Cells were kept at 37 °C and 5% CO2, and were passaged every 72 hours.
Resazurin Cell Viability Assay. The cytotoxicity in HEK293 cells were determined using a resazurin cell viability assay. Test compounds in DMSO were diluted to 100x desired final assay concentration (maximum concentration of 100 µM) in eight-point dose response. 1 µL of test compounds were plated in a 96-well clear bottom tissue culture microplate. 49 µL of cell culture media was added to each well. Cells were diluted to 4 x 10^5 cells/mL, and 50 µL of this cell suspension was seeded to each well for a total of 2 x 10^4 cells/well. The assay plate was kept at 37 °C and 5% CO 2 for either 4 or 48 hours. At the end of the incubation time, 20 µL of 0.5 mM resazurin sodium salt (Alfa Aesar) solution in PBS was added to each well. The assay plates were incubated further at 37 °C for 2 hours. Fluorescence was measured at 531 nm and 595 nm excitation and emission wavelengths, respectively, using a 2104 EnVision® multilabel plate reader. CC50 values were obtained using sigmoidal curved generated with Prism GraphPad (San Diego, CA). SD values are reported as the standard deviation of the CC50 values of 3 biological replicates. All
In general terms: The colour change of resazurin is a common sign of viable cells or microbes.

Series [3] is described as follows: pKa by potentiometric titration (Sirius T3). It counts as physicochemical. As to conditions: potentiometric titrations, means ± SD of three titrations.
Series [4] deals with HEG1-KRIT1 PPI. The conditions noted are these: prior SAR studies; read-out: HEG1-KRIT1 PPI inhibition IC50; cited from earlier work.

Broadly, the IC50 is the concentration that inhibits the measured activity by half. Usually koff stands for the rate constant with which the complex falls apart. A lower koff goes with a long-lived complex. The CC50 is the concentration giving 50% cytotoxicity. Usually pKa stands for the pH at which an ionisable group is half protonated. A high value points to a group that holds its proton tightly.

“And” between values parts separate entries of the source, which are not always exact repeats. Equal entries are not always repeated. Some results are limits rather than exact numbers.

T1 sequence (O00522 417-736): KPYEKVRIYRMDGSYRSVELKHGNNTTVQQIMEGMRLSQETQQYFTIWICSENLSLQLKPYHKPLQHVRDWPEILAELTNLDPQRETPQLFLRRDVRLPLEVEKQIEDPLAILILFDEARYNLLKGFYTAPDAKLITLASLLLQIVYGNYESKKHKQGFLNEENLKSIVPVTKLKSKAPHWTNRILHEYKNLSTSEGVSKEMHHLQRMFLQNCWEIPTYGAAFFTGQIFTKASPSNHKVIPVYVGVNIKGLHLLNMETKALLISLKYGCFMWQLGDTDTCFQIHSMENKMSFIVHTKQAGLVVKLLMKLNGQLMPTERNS

With `CN(C)c1ccc2c(C=O)c(O)ccc2c1` [Compound 11], at HEG1-KRIT1 PPI [1], the IC50 came out at 12.1 ± 4.61 µM; the “HEG1-KRIT1 PPI Assay kon” value is 9.64 M⁻¹ s⁻¹ and 9.64 ± 2.08 M⁻¹ s⁻¹; the koff was 0.00011 s⁻¹; the Ki was found to be 11.4 ± 4.08 µM. Moreover, the CC50 at 48 h in series [2] is > 100 µM.
In series [3], `C=CCOc1ccc2c(C=O)c(O)ccc2c1` [Compound 9] had a pKa of 7.34 ± 0.12. For the same compound, on HEG1-KRIT1 PPI [1], inhibition was half-maximal at 2.75 ± 0.19 µM (IC50), the “HEG1-KRIT1 PPI Assay kon” value was 24.6 ± 1.81 M⁻¹ s⁻¹, the koff was 2.29e-05 s⁻¹ and the Ki turned out to be 0.93 ± 0.24 µM. Besides, the CC50 at 48 h in series [2] stood at 59.2 ± 12.9 µM.
In turn, `O=Cc1c(O)ccc2cc(-c3c[nH]nn3)ccc12` [Compound 14] registered a pKa in series [3] of 7.38 ± 0.12. Besides, on HEG1-KRIT1 PPI [1], the IC50 was 12 ± 1.09 µM; the “HEG1-KRIT1 PPI Assay kon” value is 4.58 M⁻¹ s⁻¹ and 4.58 ± 0.444 M⁻¹ s⁻¹; the koff is 1.99e-05 s⁻¹; the Ki worked out at 4.35 ± 1.77 µM. Also, in series [2], the CC50 at 48 h was > 100 µM.
For `O=Cc1c(O)ccc2ccc(-c3ccco3)cc12` [Compound 6], the pKa in series [3] was 7.5 ± 0.02. At HEG1-KRIT1 PPI [1], the IC50 turned out to be 0.94 ± 0.12 µM, the “HEG1-KRIT1 PPI Assay kon” value amounted to 52.8 ± 9.17 M⁻¹ s⁻¹, the koff is 4.97e-05 s⁻¹ and the Ki came out at 0.94 ± 0.32 µM. Half-maximal cytotoxicity in series [2] (CC50 at 48 h) was put at 41.2 ± 6.7 µM.
With `O=Cc1ccccc1O` [salicylaldehyde, reference compound], the IC50 with HEG1-KRIT1 PPI [4] is > 500 µM.
As for `O=Cc1c(O)ccc2cc(-c3cccs3)ccc12` [Compound 4], at HEG1-KRIT1 PPI [1], the half-inhibitory concentration (IC50) is 0.47 ± 0.11 µM, the “HEG1-KRIT1 PPI Assay kon” value is 200 ± 30 M⁻¹ s⁻¹, the koff was 0.000114 s⁻¹ and the Ki is 0.57 ± 0.14 µM. In addition, the CC50 at 48 h in series [2] was 33.9 ± 0.7 µM.
For the compound `CC#Cc1ccc2c(C=O)c(O)ccc2c1` [Compound 12], the pKa in series [3] was 7.02 ± 0.08. On HEG1-KRIT1 PPI [1], the IC50 was determined as 1.42 ± 0.32 µM, the “HEG1-KRIT1 PPI Assay kon” value worked out at 43.1 ± 5.83 M⁻¹ s⁻¹, the koff was 4.36e-05 s⁻¹ and the Ki was determined as 1.01 ± 0.29 µM. The CC50 at 48 h in series [2] was ~100 µM.
